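Five compound concentrations were applied to cells in 96-well plates for 48 hours; endpoints were derived by simple linear interpolation of the resulting dose-response curve. TGI: total growth inhibition.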

The subject of one assay is NCI-H23 lung. The assay can be described thus: inhibition of tumour cell growth, NCI panel, 48 h.
For `CC1=NN(C(=O)c2ccccc2O)C(=O)/C1=C/c1ccco1`, the TGI was above 26.9 µM.

On to `Cn1c2ccccc2c2c(-c3ccccc3)cc3c(c21)C(=O)C=CC3=O`, for which the TGI stood at 3.81 µM.

For the compound `COc1ccc(Nc2nnc(-c3nsc4ccccc34)s2)cc1`, the TGI is above 100 µM.

For the compound `NC(N)=N/N=C/c1c(-c2ccc(Cl)cc2)nc2sccn12`, the TGI was found to be 19.9 µM.

The subject of the next assay is TK-10 renal. Briefly: inhibition of tumour cell growth, NCI panel, 48 h.
Consider `CCOc1cc(NC(C)=O)ccc1C(=O)NN1C(=O)C(Cl)C1c1ccccc1` (stereo unspecified), for which the TGI worked out at 31.2 µM.

`Cc1ccc(S(=O)(=O)n2cc(-c3cc(C(F)(F)F)ccn3)c3cc(Br)ccc32)cc1` returned a TGI of 44.8 µM.

In turn, `CN(CCCCCl)P(=O)(OCc1ccc([N+](=O)[O-])o1)OC[C@H]1O[C@@H](n2cc(F)c(=O)[nH]c2=O)C[C@@H]1O` (stereo partly specified) had a TGI above 79.8 µM.

Compound `CCOC(=O)P(=O)(O)c1ccc(N(C)Cc2ccccc2)cc1` returned a TGI above 100 µM.

`[N-]=[N+]=Nc1ccccc1C(=O)N1C(=O)c2ccccc2C(=O)N(C(=O)c2ccccc2N=[N+]=[N-])c2ccccc21` gave a TGI above 100 µM.

Turning to `CC(C)Cn1cnc2c(NCC(C)O)nc3ccccc3c21` (stereo unspecified), the TGI was above 100 µM.

Compound `COC1(OC)c2no[n+]([O-])c2CCC1O` (stereo unspecified) returned a TGI above 100 µM.

In the case of `OC1(c2cccs2)c2cccc(Cl)c2C(O)(c2cccs2)c2c(Cl)cccc21` (stereo unspecified), the TGI was above 100 µM.

In the case of `C=CCOc1cccc(C2(O)c3ccccc3C3=NCCCN32)c1` (stereo unspecified), the TGI is above 100 µM.

For the compound `C=CCN1C(=O)/C(=C/c2ccc(OC)cc2)N=C1SC/C=C/C`, the TGI was above 100 µM.

`O=C(ON=C1c2ccccc2C(Br)C(Br)c2ccccc21)c1cc([N+](=O)[O-])cc([N+](=O)[O-])c1` (stereo unspecified) showed a TGI of 45.8 µM.

For the compound `CC1=NN(C(=O)c2ccccc2O)C(=O)/C1=C/c1ccco1`, the TGI was above 100 µM.

Compound `Cn1c2ccccc2c2c(-c3ccccc3)cc3c(c21)C(=O)C=CC3=O` returned a TGI of 3.4 µM.

In turn, `COc1ccc(Nc2nnc(-c3nsc4ccccc34)s2)cc1` came in with a TGI above 88.5 µM.

The compound `NC(N)=N/N=C/c1c(-c2ccc(Cl)cc2)nc2sccn12` yielded a TGI of 6.53 µM.

For another assay, the system named is MDA-MB-435. Briefly: inhibition of tumour cell growth, NCI panel, 48 h.
Take `CCOc1cc(NC(C)=O)ccc1C(=O)NN1C(=O)C(Cl)C1c1ccccc1` (stereo unspecified): the TGI came to 26 µM.

Compound `Cc1ccc(S(=O)(=O)n2cc(-c3cc(C(F)(F)F)ccn3)c3cc(Br)ccc32)cc1` came in with a TGI above 100 µM.

In turn, `CN(CCCCCl)P(=O)(OCc1ccc([N+](=O)[O-])o1)OC[C@H]1O[C@@H](n2cc(F)c(=O)[nH]c2=O)C[C@@H]1O` (stereo partly specified) displayed a TGI of 39 µM.

With `CCOC(=O)P(=O)(O)c1ccc(N(C)Cc2ccccc2)cc1`, the TGI was above 100 µM.

In turn, `[N-]=[N+]=Nc1ccccc1C(=O)N1C(=O)c2ccccc2C(=O)N(C(=O)c2ccccc2N=[N+]=[N-])c2ccccc21` gave a TGI above 100 µM.

Regarding `CC(C)Cn1cnc2c(NCC(C)O)nc3ccccc3c21` (stereo unspecified), the TGI is above 100 µM.

The compound `COC1(OC)c2no[n+]([O-])c2CCC1O` (stereo unspecified) showed a TGI above 100 µM.

`OC1(c2cccs2)c2cccc(Cl)c2C(O)(c2cccs2)c2c(Cl)cccc21` (stereo unspecified) returned a TGI above 100 µM.

In turn, `C=CCOc1cccc(C2(O)c3ccccc3C3=NCCCN32)c1` (stereo unspecified) showed a TGI of 26 µM.

In the case of `C=CCN1C(=O)/C(=C/c2ccc(OC)cc2)N=C1SC/C=C/C`, the TGI was above 100 µM.

Consider `O=C(ON=C1c2ccccc2C(Br)C(Br)c2ccccc21)c1cc([N+](=O)[O-])cc([N+](=O)[O-])c1` (stereo unspecified), for which the TGI came to 35.3 µM.

Turning to `CC1=NN(C(=O)c2ccccc2O)C(=O)/C1=C/c1ccco1`, the TGI was above 100 µM.

On to `Cn1c2ccccc2c2c(-c3ccccc3)cc3c(c21)C(=O)C=CC3=O`, for which the TGI is 4.32 µM.

Compound `COc1ccc(Nc2nnc(-c3nsc4ccccc34)s2)cc1` yielded a TGI above 100 µM.

Take `NC(N)=N/N=C/c1c(-c2ccc(Cl)cc2)nc2sccn12`: the TGI turned out to be 3.43 µM.

Another assay deals with UACC-257 melanoma. The assay can be described thus: inhibition of tumour cell growth, NCI panel, 48 h.
As for `CCOc1cc(NC(C)=O)ccc1C(=O)NN1C(=O)C(Cl)C1c1ccccc1` (stereo unspecified), the TGI stood at 28 µM.

`Cc1ccc(S(=O)(=O)n2cc(-c3cc(C(F)(F)F)ccn3)c3cc(Br)ccc32)cc1` came in with a TGI above 100 µM.

The compound `CN(CCCCCl)P(=O)(OCc1ccc([N+](=O)[O-])o1)OC[C@H]1O[C@@H](n2cc(F)c(=O)[nH]c2=O)C[C@@H]1O` (stereo partly specified) came in with a TGI above 68 µM.

On to `CCOC(=O)P(=O)(O)c1ccc(N(C)Cc2ccccc2)cc1`, for which the TGI was above 100 µM.

On to `[N-]=[N+]=Nc1ccccc1C(=O)N1C(=O)c2ccccc2C(=O)N(C(=O)c2ccccc2N=[N+]=[N-])c2ccccc21`, for which the TGI was above 100 µM.

The compound `CC(C)Cn1cnc2c(NCC(C)O)nc3ccccc3c21` (stereo unspecified) gave a TGI above 100 µM.

`COC1(OC)c2no[n+]([O-])c2CCC1O` (stereo unspecified) yielded a TGI above 100 µM.

Turning to `OC1(c2cccs2)c2cccc(Cl)c2C(O)(c2cccs2)c2c(Cl)cccc21` (stereo unspecified), the TGI is above 100 µM.

With `C=CCOc1cccc(C2(O)c3ccccc3C3=NCCCN32)c1` (stereo unspecified), the TGI was found to be 33.1 µM.

For `C=CCN1C(=O)/C(=C/c2ccc(OC)cc2)N=C1SC/C=C/C`, the TGI was above 100 µM.

`O=C(ON=C1c2ccccc2C(Br)C(Br)c2ccccc21)c1cc([N+](=O)[O-])cc([N+](=O)[O-])c1` (stereo unspecified): the TGI was determined as 33.2 µM.

On to `CC1=NN(C(=O)c2ccccc2O)C(=O)/C1=C/c1ccco1`, for which the TGI was above 83.1 µM.

On to `Cn1c2ccccc2c2c(-c3ccccc3)cc3c(c21)C(=O)C=CC3=O`, for which the TGI is 4.62 µM.

In turn, `COc1ccc(Nc2nnc(-c3nsc4ccccc34)s2)cc1` had a TGI above 100 µM.

For the compound `NC(N)=N/N=C/c1c(-c2ccc(Cl)cc2)nc2sccn12`, the TGI amounted to 3.62 µM.

In another assay the test system is SR leukemia. Briefly: inhibition of tumour cell growth, NCI panel, 48 h.
With `CCOc1cc(NC(C)=O)ccc1C(=O)NN1C(=O)C(Cl)C1c1ccccc1` (stereo unspecified), the TGI turned out to be 14.3 µM.

`Cc1ccc(S(=O)(=O)n2cc(-c3cc(C(F)(F)F)ccn3)c3cc(Br)ccc32)cc1` gave a TGI above 100 µM.

For the compound `CN(CCCCCl)P(=O)(OCc1ccc([N+](=O)[O-])o1)OC[C@H]1O[C@@H](n2cc(F)c(=O)[nH]c2=O)C[C@@H]1O` (stereo partly specified), the TGI was 24.2 µM.

Compound `CCOC(=O)P(=O)(O)c1ccc(N(C)Cc2ccccc2)cc1` had a TGI above 100 µM.

`[N-]=[N+]=Nc1ccccc1C(=O)N1C(=O)c2ccccc2C(=O)N(C(=O)c2ccccc2N=[N+]=[N-])c2ccccc21`: the TGI is above 100 µM.

`CC(C)Cn1cnc2c(NCC(C)O)nc3ccccc3c21` (stereo unspecified) returned a TGI above 100 µM.

In turn, `COC1(OC)c2no[n+]([O-])c2CCC1O` (stereo unspecified) returned a TGI above 100 µM.

As for `OC1(c2cccs2)c2cccc(Cl)c2C(O)(c2cccs2)c2c(Cl)cccc21` (stereo unspecified), the TGI was above 100 µM.

`C=CCOc1cccc(C2(O)c3ccccc3C3=NCCCN32)c1` (stereo unspecified) came in with a TGI of 32.6 µM.

As for `C=CCN1C(=O)/C(=C/c2ccc(OC)cc2)N=C1SC/C=C/C`, the TGI turned out to be 63.8 µM.

As to `O=C(ON=C1c2ccccc2C(Br)C(Br)c2ccccc21)c1cc([N+](=O)[O-])cc([N+](=O)[O-])c1` (stereo unspecified), the TGI was 26.9 µM.

With `CC1=NN(C(=O)c2ccccc2O)C(=O)/C1=C/c1ccco1`, the TGI was above 100 µM.

Turning to `Cn1c2ccccc2c2c(-c3ccccc3)cc3c(c21)C(=O)C=CC3=O`, the TGI stood at 0.817 µM.

Regarding `COc1ccc(Nc2nnc(-c3nsc4ccccc34)s2)cc1`, the TGI was above 100 µM.

In turn, `NC(N)=N/N=C/c1c(-c2ccc(Cl)cc2)nc2sccn12` displayed a TGI of 13.2 µM.

In another assay the test system is SF-539 CNS. Briefly: inhibition of tumour cell growth, NCI panel, 48 h.
The compound `CCOc1cc(NC(C)=O)ccc1C(=O)NN1C(=O)C(Cl)C1c1ccccc1` (stereo unspecified) came in with a TGI of 35.4 µM.

In turn, `Cc1ccc(S(=O)(=O)n2cc(-c3cc(C(F)(F)F)ccn3)c3cc(Br)ccc32)cc1` yielded a TGI of 39.5 µM.

The compound `CN(CCCCCl)P(=O)(OCc1ccc([N+](=O)[O-])o1)OC[C@H]1O[C@@H](n2cc(F)c(=O)[nH]c2=O)C[C@@H]1O` (stereo partly specified) displayed a TGI of 0.217 µM.

As for `CCOC(=O)P(=O)(O)c1ccc(N(C)Cc2ccccc2)cc1`, the TGI is above 100 µM.

Consider `[N-]=[N+]=Nc1ccccc1C(=O)N1C(=O)c2ccccc2C(=O)N(C(=O)c2ccccc2N=[N+]=[N-])c2ccccc21`, for which the TGI was above 100 µM.

`CC(C)Cn1cnc2c(NCC(C)O)nc3ccccc3c21` (stereo unspecified) yielded a TGI above 100 µM.

Turning to `COC1(OC)c2no[n+]([O-])c2CCC1O` (stereo unspecified), the TGI is above 100 µM.

For the origin of these results see PubChem BioAssay (NCI).
